# Assay results: PMC11963564 (Antimicrobial Agents and Chemotherapy, 2025)
# Columns and labels:
# [1] = system: 3CL^pro mutant F140A; format: biochemical, SARS-CoV-2
# [2] = system: SARS-CoV-2 Omicron variant B.1.1.529; details: cited from earlier work
substance,measurement,setting,value
simnotrelvir,IC50 fold change to WT,[1],21.9 fold
same,IC50,[2],43 nM
